The record followed here is US20150011569A1, “NOVEL P13K p110 INHIBITORS AND METHODS OF USE THEREOF” (PHILADELPHIA HEALTH & EDUCATION CORPORATION d/b/a Drexel …, priority 2011, published 2015).

Test [1] deals with virulent influenza virus strain. Also on record: species or system mice. The following applies: mouse, in vivo.
In test [2] the test system is influenza virus. As to the kind of experiment: In vitro anti-viral assay in A549 cells (plaque assay, viral mRNA). The format is cell-based.
The target of test [3] is T1, PI3K p110γ (Homo sapiens, UniProt P48736).
T1 construct: purchased Reaction Biology Corporation (RBC) Malvern, Pa
T1 sequence (P48736 whole entry): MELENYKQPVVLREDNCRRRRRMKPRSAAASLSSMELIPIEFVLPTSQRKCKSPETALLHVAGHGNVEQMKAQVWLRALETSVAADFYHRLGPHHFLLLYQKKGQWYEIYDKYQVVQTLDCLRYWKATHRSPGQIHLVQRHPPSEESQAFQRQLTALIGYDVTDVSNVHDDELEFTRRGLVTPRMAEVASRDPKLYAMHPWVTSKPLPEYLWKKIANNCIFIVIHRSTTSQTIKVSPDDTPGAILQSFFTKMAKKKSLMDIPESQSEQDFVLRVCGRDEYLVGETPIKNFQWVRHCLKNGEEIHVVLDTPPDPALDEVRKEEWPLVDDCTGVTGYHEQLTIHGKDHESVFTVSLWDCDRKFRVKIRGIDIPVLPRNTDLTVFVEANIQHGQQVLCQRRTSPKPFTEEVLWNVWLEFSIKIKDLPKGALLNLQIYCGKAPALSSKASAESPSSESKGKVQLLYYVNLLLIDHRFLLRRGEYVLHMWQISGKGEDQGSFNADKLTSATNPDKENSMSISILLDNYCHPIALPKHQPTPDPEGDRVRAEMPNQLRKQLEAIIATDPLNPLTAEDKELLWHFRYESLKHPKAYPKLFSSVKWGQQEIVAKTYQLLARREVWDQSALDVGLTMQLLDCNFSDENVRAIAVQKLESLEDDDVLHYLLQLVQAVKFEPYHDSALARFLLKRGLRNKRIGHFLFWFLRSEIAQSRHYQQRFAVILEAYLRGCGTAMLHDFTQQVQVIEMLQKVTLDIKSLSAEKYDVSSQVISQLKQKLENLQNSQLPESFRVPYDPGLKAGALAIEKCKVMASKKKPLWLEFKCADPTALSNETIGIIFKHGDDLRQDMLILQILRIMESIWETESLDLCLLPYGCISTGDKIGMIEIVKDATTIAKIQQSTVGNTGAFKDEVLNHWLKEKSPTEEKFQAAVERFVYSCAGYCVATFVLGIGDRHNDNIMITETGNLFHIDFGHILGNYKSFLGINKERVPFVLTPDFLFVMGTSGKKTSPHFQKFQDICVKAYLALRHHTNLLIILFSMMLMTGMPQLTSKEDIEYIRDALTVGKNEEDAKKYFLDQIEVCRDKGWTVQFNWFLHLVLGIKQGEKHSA
As to the kind of experiment: PI3K isoform inhibition in vitro, p110γ. The following applies: class I PI3K isoform γ. The format is biochemical. The source says:
(§1) A PI3K assay can be used to evaluate the activity of the prototype molecule. Reaction Biology Corporation (RBC) Malvern, Pa. offers Class I PI3Ks (PI3Kα, PI3Kβ, PI3Kγ, and PI3Kδ). The PIP3 product is detected by displacement of biotin-PIP3 from an energy transfer complex consisting of Europium labeled anti-GST monoclonal antibody, a GST-tagged pleckstrin homology (PH) domain, biotinylated PIP3 and Streptavidin-Allophycocyanin (APC). Excitation of Europium in the complex results in an energy transfer to the APC and a fluorescent emission at 665 nm. The PIP3 product formed displaces biotin-PIP3 from the complex resulting in a loss of energy transfer and thus a decrease in signal.

Test [4] has as its target T2, PI3K p110α (Homo sapiens, UniProt P42336).
T2 construct: purchased Reaction Biology Corporation (RBC) Malvern, Pa
As to the kind of experiment: PI3K isoform inhibition in vitro, p110α. Particulars: class I PI3K isoform α. Type of test: biochemical.
Description: as §1

For test [5], the target named is T3, PI3K p110β (Homo sapiens, UniProt P42338).
T3 construct: purchased Reaction Biology Corporation (RBC) Malvern, Pa
T3 sequence (P42338 whole entry): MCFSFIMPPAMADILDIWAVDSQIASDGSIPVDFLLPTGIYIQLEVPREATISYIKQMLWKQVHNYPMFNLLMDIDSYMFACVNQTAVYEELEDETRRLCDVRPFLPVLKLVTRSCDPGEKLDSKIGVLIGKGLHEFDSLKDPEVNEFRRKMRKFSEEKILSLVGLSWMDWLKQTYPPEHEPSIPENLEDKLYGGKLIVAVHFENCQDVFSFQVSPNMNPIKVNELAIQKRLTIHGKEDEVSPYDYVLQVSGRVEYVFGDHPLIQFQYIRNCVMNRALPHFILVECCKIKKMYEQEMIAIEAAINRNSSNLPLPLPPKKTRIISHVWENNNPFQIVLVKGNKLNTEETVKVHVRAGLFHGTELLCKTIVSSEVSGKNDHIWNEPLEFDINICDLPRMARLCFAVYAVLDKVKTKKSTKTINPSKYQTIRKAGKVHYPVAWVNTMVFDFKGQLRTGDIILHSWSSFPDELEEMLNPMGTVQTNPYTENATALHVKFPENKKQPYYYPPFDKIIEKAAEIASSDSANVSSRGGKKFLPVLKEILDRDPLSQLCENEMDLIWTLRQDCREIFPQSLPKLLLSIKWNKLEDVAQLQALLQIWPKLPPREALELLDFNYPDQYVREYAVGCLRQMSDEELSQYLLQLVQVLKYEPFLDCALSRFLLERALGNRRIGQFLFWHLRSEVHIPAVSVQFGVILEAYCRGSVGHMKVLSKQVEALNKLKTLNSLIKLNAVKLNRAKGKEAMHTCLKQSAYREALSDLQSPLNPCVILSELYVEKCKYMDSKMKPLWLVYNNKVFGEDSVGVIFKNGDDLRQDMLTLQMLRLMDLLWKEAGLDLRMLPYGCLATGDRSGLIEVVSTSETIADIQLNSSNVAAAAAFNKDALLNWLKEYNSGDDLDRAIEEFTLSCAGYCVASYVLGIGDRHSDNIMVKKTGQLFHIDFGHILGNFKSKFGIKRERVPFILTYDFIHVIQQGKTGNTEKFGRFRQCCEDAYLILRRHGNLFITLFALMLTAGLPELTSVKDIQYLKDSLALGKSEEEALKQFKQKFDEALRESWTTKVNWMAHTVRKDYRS
T3 sequence (P27986 whole entry partner): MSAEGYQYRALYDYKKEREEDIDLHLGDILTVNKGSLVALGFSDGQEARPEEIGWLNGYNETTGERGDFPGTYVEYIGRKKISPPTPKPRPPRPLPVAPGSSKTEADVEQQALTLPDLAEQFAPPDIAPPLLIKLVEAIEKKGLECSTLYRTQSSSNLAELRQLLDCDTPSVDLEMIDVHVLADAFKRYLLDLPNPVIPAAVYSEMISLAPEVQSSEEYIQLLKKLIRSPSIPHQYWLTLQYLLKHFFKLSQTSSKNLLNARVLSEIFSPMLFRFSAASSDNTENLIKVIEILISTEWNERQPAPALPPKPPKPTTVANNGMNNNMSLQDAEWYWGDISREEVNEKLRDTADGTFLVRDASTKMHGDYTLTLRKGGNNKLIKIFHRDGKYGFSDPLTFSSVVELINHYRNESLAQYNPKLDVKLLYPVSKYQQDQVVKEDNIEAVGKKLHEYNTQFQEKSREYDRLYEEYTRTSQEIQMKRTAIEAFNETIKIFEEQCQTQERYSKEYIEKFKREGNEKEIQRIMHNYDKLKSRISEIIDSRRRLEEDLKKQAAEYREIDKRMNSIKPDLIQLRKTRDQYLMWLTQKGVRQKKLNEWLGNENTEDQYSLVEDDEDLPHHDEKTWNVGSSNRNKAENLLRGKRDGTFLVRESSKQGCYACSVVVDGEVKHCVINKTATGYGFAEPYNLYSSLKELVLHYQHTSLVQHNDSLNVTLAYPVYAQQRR
As to the kind of experiment: PI3K isoform inhibition in vitro, p110β. The format is biochemical. The following applies: class I PI3K isoform β.
Description: as §1

Test [6] deals with T4, PI3K p110δ (Homo sapiens, UniProt O00329).
T4 construct: purchased Reaction Biology Corporation (RBC) Malvern, Pa
T4 sequence (O00329 whole entry): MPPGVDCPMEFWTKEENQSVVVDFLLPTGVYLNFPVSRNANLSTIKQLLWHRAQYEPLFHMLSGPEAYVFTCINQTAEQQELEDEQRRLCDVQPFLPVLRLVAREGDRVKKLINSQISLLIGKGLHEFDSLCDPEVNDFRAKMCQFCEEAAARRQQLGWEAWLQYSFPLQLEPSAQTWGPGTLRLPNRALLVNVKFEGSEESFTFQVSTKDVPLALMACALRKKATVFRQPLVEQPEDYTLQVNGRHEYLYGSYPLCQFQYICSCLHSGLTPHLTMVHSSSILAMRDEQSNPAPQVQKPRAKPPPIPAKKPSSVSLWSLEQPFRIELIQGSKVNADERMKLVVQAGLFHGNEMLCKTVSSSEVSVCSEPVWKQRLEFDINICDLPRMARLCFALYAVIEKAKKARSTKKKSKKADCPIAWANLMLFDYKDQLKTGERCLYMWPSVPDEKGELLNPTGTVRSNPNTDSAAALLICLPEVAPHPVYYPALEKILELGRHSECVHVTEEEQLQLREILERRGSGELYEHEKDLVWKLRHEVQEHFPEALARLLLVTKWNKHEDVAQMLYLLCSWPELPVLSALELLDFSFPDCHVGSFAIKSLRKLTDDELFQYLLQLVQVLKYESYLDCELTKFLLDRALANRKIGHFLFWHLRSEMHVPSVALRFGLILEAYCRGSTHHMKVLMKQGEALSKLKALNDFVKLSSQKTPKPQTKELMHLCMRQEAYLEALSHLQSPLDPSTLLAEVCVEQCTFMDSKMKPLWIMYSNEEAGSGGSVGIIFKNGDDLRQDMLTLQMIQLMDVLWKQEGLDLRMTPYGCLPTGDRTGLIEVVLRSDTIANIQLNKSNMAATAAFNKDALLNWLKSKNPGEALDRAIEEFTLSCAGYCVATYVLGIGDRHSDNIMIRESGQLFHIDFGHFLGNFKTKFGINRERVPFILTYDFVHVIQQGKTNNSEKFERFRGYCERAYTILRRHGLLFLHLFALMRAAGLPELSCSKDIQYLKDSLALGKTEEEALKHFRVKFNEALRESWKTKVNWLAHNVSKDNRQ
T4 sequence (P27986 whole entry partner): as the sequence (P27986 whole entry partner) above
As to the kind of experiment: PI3K isoform inhibition in vitro, p110δ. Type of test: biochemical. The following applies: class I PI3K isoform δ.
Description: as §1

T2 sequence (P42336 whole entry): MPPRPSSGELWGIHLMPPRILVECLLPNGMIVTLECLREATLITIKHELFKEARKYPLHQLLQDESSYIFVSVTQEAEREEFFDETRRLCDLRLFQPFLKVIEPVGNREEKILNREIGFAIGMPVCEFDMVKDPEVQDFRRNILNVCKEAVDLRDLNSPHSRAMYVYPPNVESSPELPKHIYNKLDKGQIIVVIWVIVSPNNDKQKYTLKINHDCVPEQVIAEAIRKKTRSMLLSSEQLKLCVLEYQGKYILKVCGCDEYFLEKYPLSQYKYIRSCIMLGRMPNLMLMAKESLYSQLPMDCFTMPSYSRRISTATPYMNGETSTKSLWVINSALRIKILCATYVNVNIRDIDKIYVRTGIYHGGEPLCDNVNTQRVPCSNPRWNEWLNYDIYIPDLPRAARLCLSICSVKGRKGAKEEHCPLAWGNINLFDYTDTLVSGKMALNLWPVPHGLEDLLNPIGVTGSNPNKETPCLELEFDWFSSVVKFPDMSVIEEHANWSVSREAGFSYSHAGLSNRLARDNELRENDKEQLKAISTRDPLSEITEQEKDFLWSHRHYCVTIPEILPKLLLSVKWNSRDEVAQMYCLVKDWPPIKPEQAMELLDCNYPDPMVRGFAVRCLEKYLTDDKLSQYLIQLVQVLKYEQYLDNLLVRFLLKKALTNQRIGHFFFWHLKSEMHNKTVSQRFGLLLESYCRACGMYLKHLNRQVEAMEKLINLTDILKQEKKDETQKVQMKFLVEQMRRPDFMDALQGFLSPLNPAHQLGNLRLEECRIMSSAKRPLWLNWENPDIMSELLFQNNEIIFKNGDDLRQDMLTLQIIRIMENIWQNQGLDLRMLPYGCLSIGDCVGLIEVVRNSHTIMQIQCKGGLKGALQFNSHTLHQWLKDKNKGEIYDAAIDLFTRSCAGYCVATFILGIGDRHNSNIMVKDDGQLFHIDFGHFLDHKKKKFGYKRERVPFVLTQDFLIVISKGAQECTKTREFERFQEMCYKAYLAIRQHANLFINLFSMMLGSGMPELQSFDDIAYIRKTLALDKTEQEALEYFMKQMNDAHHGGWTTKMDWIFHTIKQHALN
T2 sequence (P27986 whole entry partner): as the sequence (P27986 whole entry partner) above

As for `Cc1ccccc1-n1c(Cn2cnc3c(N)ncnc32)nc2cccc(C)c2c1=O` [IC87114], the “protection from lethal challenge” value in test [1] was “protected animals from lethal challenge”. In addition, the “viral replication in A549 lung epithelial cells” value in test [2] is reported as “decreased”.
Regarding `Cc1ccccc1-c1nc2ncccc2cc1Cn1cnc2c(N)ncnc21` [compound 7b, 9-((2-(2-methylphenyl)-1,8-naphthyridin-3-yl)methyl)-9H-purin-6-amine], the IC50 in test [3] is 40 µM; in test [4], over 100 µM; in test [5], over 100 µM; in test [6], 1.3 µM.

In general, IC50 refers to the point on the concentration scale where inhibition reaches its midpoint. Low values mean higher potency, high ones lower potency.
